Reference: patent US20230270114A1, “FUNGICIDAL COMPOSITIONS” (SYNGENTA CROP PROTECTION AG, priority 2020, published 2023)
Where two headings read alike, the source gives them in different places.

Tests used:
[1] = test system: Mycosphaerella graminicola (Septoria tritici); assay: Example A14: Mycosphaerella graminicola (Septoria tritici) / liquid culture (Septoria blotch); type: cell-based; conditions: Zymoseptoria tritici; read-out: control of Mycosphaerella graminicola
Pyrenophora teres = assay: Example A12: Pyrenophora teres / barley / leaf disc preventative (net blotch); type: in vivo; conditions: foliar, inoculated 2 days after application, compared to untreated control
Alternaria solani = assay: Example A1: Alternaria solani / tomato / leaf disc (early blight); type: in vivo; conditions: foliar, tomato leaf disks inoculated 2 days after application, compared to untreated control
[2] = test system: Magnaporthe grisea (Pyricularia oryzae); assay: whole plant or invertebrate; type: in vivo; conditions: foliar, read-out: control of Magnaporthe grisea
[3] = test system: Puccinia recondita f. sp. tritici; type: in vivo; conditions: foliar, wheat leaf disc preventative, inoculated 1 day after application, compared to untreated control
[4] = test system: Glomerella lagenarium (Colletotrichum lagenarium); assay: Example A3: Glomerella lagenarium (Colletotrichum lagenarium) / liquid culture (anthracnose); type: cell-based; conditions: Colletotrichum orbiculare; read-out: control of Glomerella lagenarium
[5] = test system: Monographella nivalis (Microdochium nivale); assay: Example A6: Monographella nivalis (Microdochium nivale) / liquid culture (foot rot cereals); type: cell-based; conditions: read-out: control of Monographella nivalis
[6] = test system: Mycosphaerella arachidis (Cercospora arachidicola); assay: Example A7: Mycosphaerella arachidis (Cercospora arachidicola) / liquid culture (early leaf spot); type: cell-based; conditions: read-out: control of Mycosphaerella arachidis
Phakopsora pachyrhizi = assay: Example A8: Phakopsora pachyrhizi / soybean / preventative (soybean rust); type: in vivo; conditions: foliar, soybean leaf disks preventative, inoculated one day after application, compared to untreated control
[7] = test system: Puccinia recondita f. sp. tritici; type: in vivo; conditions: foliar, 24 h, wheat leaf disc curative, applied 1 day after inoculation, compared to untreated control

CC(=O)OC(C)C(=O)N(c1cc(F)nc(F)c1)c1nc(C(=O)NC2CCC23CCCC3)c(C)s1 (stereo not shown) [X.01, [2-[(2,6-difluoro-4-pyridyl)-[5-methyl-4-(spiro[3.4]octan-3-ylcarbamoyl)thiazol-2-yl]amino]-1-methyl-2-oxo-ethyl] acetate]
≥ 80%: inhibition of growth at 20 ppm [1] | pest or weed control at 200 ppm (Pyrenophora teres) | pest or weed control at 200 ppm (Alternaria solani) | pest or weed control at 200 ppm [2] | pest or weed control at 200 ppm [3] | inhibition of growth at 20 ppm [4] | inhibition of growth at 20 ppm [5]

COC(=O)OC(C)C(=O)N(c1cc(F)nc(F)c1)c1nc(C(=O)NC2CCC23CCCC3)c(C)s1 (stereo not shown) [X.03, [2-[(2,6-difluoro-4-pyridyl)-[5-methyl-4-(spiro[3.4]octan-3-ylcarbamoyl)thiazol-2-yl]amino]-1-methyl-2-oxo-ethyl] methyl carbonate]
≥ 80%: inhibition of growth at 20 ppm [1] | pest or weed control at 200 ppm (Pyrenophora teres) | pest or weed control at 200 ppm [2] | pest or weed control at 200 ppm [3] | inhibition of growth at 20 ppm [4] | inhibition of growth at 20 ppm [5]

CCOC(=O)OC(C)C(=O)N(c1cc(F)nc(F)c1)c1nc(C(=O)NC2CCC23CCCC3)c(C)s1 (stereo not shown) [X.04, [2-[(2,6-difluoro-4-pyridyl)-[5-methyl-4-(spiro[3.4]octan-3-ylcarbamoyl)thiazol-2-yl]amino]-1-methyl-2-oxo-ethyl] ethyl carbonate]
≥ 80%: inhibition of growth at 20 ppm [1] | inhibition of growth at 20 ppm [6] | pest or weed control at 200 ppm (Pyrenophora teres) | pest or weed control at 200 ppm (Alternaria solani) | pest or weed control at 200 ppm [2] | pest or weed control at 200 ppm [3] | inhibition of growth at 20 ppm [4] | inhibition of growth at 20 ppm [5]

COC(C)C(=O)N(c1cc(F)nc(F)c1)c1nc(C(=O)NC2CCC2)c(C)s1 (stereo not shown) [X.07, N-cyclobutyl-2-[(2,6-difluoro-4-pyridyl)-(2-methoxypropanoyl)amino]-5-methylthiazole-4-carboxamide]
≥ 80%: pest or weed control at 200 ppm (Phakopsora pachyrhizi) | pest or weed control at 200 ppm [2] | pest or weed control at 200 ppm [3]

Cc1sc(N(C(=O)Cc2ccccc2)c2cc(F)nc(F)c2)nc1C(=O)NC1CCC1(C)C (stereo not shown) [X.09, 2-[(2,6-difluoro-4-pyridyl)-(2-phenylacetyl)amino]-N-(2,2-dimethylcyclobutyl)-5-methyl-thiazole-4-carboxamide]
≥ 80%: inhibition of growth at 20 ppm [1] | pest or weed control at 200 ppm (Alternaria solani) | pest or weed control at 200 ppm [2] | pest or weed control at 200 ppm [3] | inhibition of growth at 20 ppm [4] | inhibition of growth at 20 ppm [5]

Cc1sc(N(C(=O)CC(F)(F)F)c2cc(F)nc(F)c2)nc1C(=O)NC1CCC1(C)C (stereo not shown) [X.21, 2-[(2,6-difluoro-4-pyridyl)-(3,3,3-trifluoropropanoyl)amino]-N-(2,2-dimethylcyclobutyl)-5-methyl-thiazole-4-carboxamide]
≥ 80%: inhibition of growth at 20 ppm [1] | inhibition of growth at 20 ppm [6] | pest or weed control at 200 ppm (Alternaria solani) | pest or weed control at 200 ppm [7] | pest or weed control at 200 ppm [2] | pest or weed control at 200 ppm [3] | inhibition of growth at 20 ppm [4] | inhibition of growth at 20 ppm [5]

COC(=O)CCC(=O)N(c1cc(F)nc(F)c1)c1nc(C(=O)NC2CCC2(C)C)c(C)s1 (stereo not shown) [X.23, methyl 4-[(2,6-difluoro-4-pyridyl)-[4-[(2,2-dimethylcyclobutyl)carbamoyl]-5-methyl-thiazol-2-yl]amino]-4-oxo-butanoate]
≥ 80%: pest or weed control at 200 ppm (Pyrenophora teres) | pest or weed control at 200 ppm (Alternaria solani) | pest or weed control at 200 ppm [7] | pest or weed control at 200 ppm [2] | pest or weed control at 200 ppm [3] | inhibition of growth at 20 ppm [4] | inhibition of growth at 20 ppm [5]

COCCOC(=O)N(c1cc(F)nc(F)c1)c1nc(C(=O)NC2CCC2(C)C)c(C)s1 (stereo not shown) [X.28, 2-methoxyethyl N-(2,6-difluoro-4-pyridyl)-N-[4-[(2,2-dimethylcyclobutyl)carbamoyl]-5-methyl-thiazol-2-yl]carbamate]
≥ 80%: pest or weed control at 200 ppm [7] | pest or weed control at 200 ppm [2] | pest or weed control at 200 ppm [3] | inhibition of growth at 20 ppm [5]
